The results in this text go back to patent US12668600B2 (Kumquat Biosciences Inc., priority 2023, dated 2026).

What all share (assay type): biochemical
In assay [1] the target is T1, KRAS G12D (Homo sapiens, UniProt P01116, G12D).
T1 construct: made in house; host or cells: E. coli, e.g. BL21 (DE3)
The assay is described as follows: HTRF KRAS-SOS1 interaction assay, KRAS G12D. The following applies: binned ≤2 μM / >2 μM, read-out: Inhibition of KRAS G12D (IC50). The procedure, abridged: (§1)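 Read-out: HTRF ratio 665/620 nm after ≥10 min incubation of compound with GST-KRAS/anti-GST-Eu and His-hSOS1/anti-6His-XL665. Duplicate dose series, 10 μM down to 0.01 μM. Buffer HEPES pH 7.4, NaCl, DTT, BSA, Igepal.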

Assay [2] addresses T2, KRAS G12V (Homo sapiens, UniProt P01116, G12V).
T2 construct: made in house; host or cells: E. coli, e.g. BL21 (DE3)
The assay is described as follows: HTRF KRAS-SOS1 interaction assay, KRAS G12V. The following applies: binned ≤2 μM / >2 μM, read-out: Inhibition of KRAS G12V (IC50). In outline:
as §1
(Time-resolved FRET reads energy transfer from a long-lived donor to a nearby acceptor.)

Assay [3] addresses T3, KRAS G12S (Homo sapiens, UniProt P01116, G12S).
T3 construct: made in house; host or cells: E. coli, e.g. BL21 (DE3)
The assay is described as follows: HTRF KRAS-SOS1 interaction assay, KRAS G12S. The settings on record: binned ≤2 μM / >2 μM, read-out: Inhibition of KRAS G12S (IC50). In outline:
as §1

Assay [4] has as its target T4, KRAS WT (Homo sapiens, UniProt P01116).
T4 construct: made in house; host or cells: E. coli, e.g. BL21 (DE3)
The experiment in a line: HTRF KRAS-SOS1 interaction assay, wildtype KRAS. The following applies: binned ≤2 μM / >2 μM, read-out: Inhibition of KRAS WT (IC50). The procedure, abridged: as §1

Each structure is given as a SMILES string.

T2 sequence (P01116 1-188 isoform P01116-2 G12V): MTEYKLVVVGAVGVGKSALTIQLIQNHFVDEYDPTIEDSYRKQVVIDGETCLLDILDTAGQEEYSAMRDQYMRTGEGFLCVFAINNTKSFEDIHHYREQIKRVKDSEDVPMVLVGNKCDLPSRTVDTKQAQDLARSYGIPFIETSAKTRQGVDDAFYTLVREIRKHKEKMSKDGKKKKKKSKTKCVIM
T1 sequence (P01116 1-188 isoform P01116-2 G12D): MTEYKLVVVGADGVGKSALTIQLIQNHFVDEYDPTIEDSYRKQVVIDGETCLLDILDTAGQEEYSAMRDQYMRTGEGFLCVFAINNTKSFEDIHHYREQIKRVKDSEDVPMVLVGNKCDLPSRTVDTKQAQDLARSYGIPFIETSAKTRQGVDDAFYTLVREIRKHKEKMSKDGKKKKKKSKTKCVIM
T4 sequence (P01116 1-188 isoform P01116-2): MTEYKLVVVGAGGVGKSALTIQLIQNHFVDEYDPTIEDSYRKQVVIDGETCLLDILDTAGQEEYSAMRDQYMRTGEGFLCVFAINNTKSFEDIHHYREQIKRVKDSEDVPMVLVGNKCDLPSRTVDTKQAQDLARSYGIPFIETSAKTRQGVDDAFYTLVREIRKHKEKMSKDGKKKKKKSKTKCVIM
T3 sequence (P01116 1-188 isoform P01116-2 G12S): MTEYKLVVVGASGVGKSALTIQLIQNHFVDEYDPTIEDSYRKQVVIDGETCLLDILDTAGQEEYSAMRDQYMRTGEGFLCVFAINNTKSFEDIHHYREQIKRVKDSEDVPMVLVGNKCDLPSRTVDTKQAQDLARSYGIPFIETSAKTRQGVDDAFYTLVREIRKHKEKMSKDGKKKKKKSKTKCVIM

In general, IC50 refers to the midpoint of a concentration-inhibition curve. For the compound `CO[C@H]1CCN(C)[C@@H]1COc1nc2c3c(c(C(F)(F)F)c(-c4ccc(F)c5sc(N)c(C#N)c45)c(F)c3n1)OCCN2[C@H](C)c1cccnc1N` [Compound 673, 2-amino-4-(4-((R)-1-(2-aminopyridin-3-yl)ethyl)-10-fluoro-2-(((2R,3S)-3-methoxy-1-methylpyrrolidin-2-yl)methoxy)-8-(trifluoromethyl)-5,6-dihydro-4H-[1,4]oxazepino[5,6,7-de]quinazolin-9-yl)-7-fluorobenzo[b]thiophene-3-carbonitrile], the IC50 in assay [1], in assay [2], in assay [3] and in assay [4] was no more than 2000 nM in each case.

As to `CN1CCC[C@H]1COc1nc2c3c(c(Cl)c(-c4ccc(F)c5sc(N)c(C#N)c45)c(F)c3n1)OCCN2C(c1cccnc1N)C(F)F` (mixture of isomers) [Compound 769, 2-amino-4-(4-(1-(2-aminopyridin-3-yl)-2,2-difluoroethyl)-8-chloro-10-fluoro-2-(((S)-1-methylpyrrolidin-2-yl)methoxy)-5,6-dihydro-4H-[1,4]oxazepino[5,6,7-de]quinazolin-9-yl)-7-fluorobenzo[b]thiophene-3-carbonitrile], the IC50 in assay [1], in assay [2], in assay [3] and in assay [4] was no more than 2000 nM throughout.

For the compound `C[C@H](c1cncnc1N)N1CCOc2c(C(F)(F)F)c(-c3ccc(F)c4sc(N)c(C#N)c34)c(F)c3nc(OC[C@@]45CCCN4C[C@H](F)C5)nc1c23` (single isomer, unassigned) [Compound 777], the IC50 in assay [1], in assay [2], in assay [3] and in assay [4] was no more than 2000 nM each time.

With `C[C@H](c1cccnc1N)N1CCOc2c(Cl)c(-c3ccc(F)c4sc(N)c(C#N)c34)c(F)c3nc(OC[C@@]45CCCN4C[C@H](F)C5)nc1c23` [Compound 850, 2-amino-4-(4-(1-(2-aminopyridin-3-yl)ethyl)-8-chloro-10-fluoro-2-(((2R,7aS)-2-fluorotetrahydro-1H-pyrrolizin-7a (5H)-yl)methoxy)-5,6-dihydro-4H-[1,4]oxazepino[5,6,7-de]quinazolin-9-yl)-7-fluorobenzo[b]thiophene-3-carbonitrile], the IC50 in assay [1], in assay [2], in assay [3] and in assay [4] was no more than 2000 nM in each case.

On to `CO[C@H]1CCN(C)[C@@H]1[C@H](C)Oc1nc2c3c(c(C(F)(F)F)c(-c4ccc(F)c5sc(N)c(C#N)c45)c(F)c3n1)OCCN2[C@H](CCC(F)(F)F)c1cccnc1N` [Compound 649, 2-amino-4-(4-((R)-1-(2-aminopyridin-3-yl)-4,4,4-trifluorobutyl)-10-fluoro-2-((S)-1-((2R,3S)-3-methoxy-1-methylpyrrolidin-2-yl)ethoxy)-8-(trifluoromethyl)-5,6-dihydro-4H-[1,4]oxazepino[5,6,7-de]quinazolin-9-yl)-7-fluorobenzo[b]thiophene-3-carbonitrile], for which the IC50 in assay [1], in assay [2], in assay [3] and in assay [4] was no more than 2000 nM each time.

As for `C[C@H](c1cccnc1N)N1CCOc2c(C(F)(F)F)c(-c3ccc(F)c4sc(N)c(C#N)c34)c(F)c3nc(OC[C@@]45CCCN4CC(=C(F)F)C5)nc1c23` [Compound 856, 2-amino-4-(4-((R)-1-(2-aminopyridin-3-yl)ethyl)-2-(((S)-2-(difluoromethylene)tetrahydro-1H-pyrrolizin-7a(5H)-yl)methoxy)-10-fluoro-8-(trifluoromethyl)-5,6-dihydro-4H-[1,4]oxazepino[5,6,7-de]quinazolin-9-yl)-7-fluorobenzo[b]thiophene-3-carbonitrile], the IC50 in assay [1], in assay [2], in assay [3] and in assay [4] was no more than 2000 nM each time.

Regarding `Cc1ccc([C@@H](C)N2CCOc3c(Cl)c(-c4ccc(F)c5sc(N)c(C#N)c45)c(F)c4nc(OC[C@@]56CCCN5C[C@H](F)C6)nc2c34)c(N)n1` [Compound 736, 2-amino-4-(4-((R)-1-(2-amino-6-methylpyridin-3-yl)ethyl)-8-chloro-10-fluoro-2-(((2R,7aS)-2-fluorotetrahydro-1H-pyrrolizin-7a(5H)-yl)methoxy)-5,6-dihydro-4H-[1,4]oxazepino[5,6,7-de]quinazolin-9-yl)-7-fluorobenzo[b]thiophene-3-carbonitrile], the half-inhibitory concentration (IC50) in assay [1], in assay [2], in assay [3] and in assay [4] was no more than 2000 nM throughout.

With `C[C@H](c1cccnc1N)N1CCOc2c(Br)c(-c3ccc(F)c4sc(N)c(C#N)c34)c(F)c3nc(OC[C@@]45CCCN4C[C@H](F)C5)nc1c23` (single isomer, unassigned) [Compound 858], the half-inhibitory concentration (IC50) in assay [1], in assay [2], in assay [3] and in assay [4] was no more than 2000 nM throughout.

For `N#Cc1c(N)sc2c(F)ccc(-c3c(C(F)(F)F)c4c5c(nc(OC[C@@]67CCCN6C[C@H](F)C7)nc5c3F)N([C@H](CCn3cccn3)c3cccnc3N)CCO4)c12` [Compound 829, 2-amino-4-(4-((R)-1-(2-aminopyridin-3-yl)-3-(1H-pyrazol-1-yl)propyl)-10-fluoro-2-(((2R,7aS)-2-fluorotetrahydro-1H-pyrrolizin-7a(5H)-yl)methoxy)-8-(trifluoromethyl)-5,6-dihydro-4H-[1,4]oxazepino[5,6,7-de]quinazolin-9-yl)-7-fluorobenzo[b]thiophene-3-carbonitrile], the 50% inhibitory concentration (IC50) in assay [1], in assay [2], in assay [3] and in assay [4] was no more than 2000 nM in each case.

With `N#Cc1c(N)sc2c(F)ccc(-c3c(C(F)(F)F)c4c5c(nc(OC[C@@]67CCCN6C[C@H](F)C7)nc5c3F)N([C@H](CCC3CCC3)c3cccnc3N)CCO4)c12` (single isomer, unassigned) [Compound 631], the IC50 in assay [1] was greater than 2000 nM; in assay [2], no more than 2000 nM; in assay [3], no more than 2000 nM; in assay [4] it was greater than 2000 nM.

As for `C[C@H](c1cccnc1N)N1CCOc2c(Cl)c(-c3ccc(F)c4sc(N)c(C#N)c34)c(F)c3nc(OC[C@@]45CCCN4CC(=C(F)F)C5)nc1c23` (atropisomer, axis not shown) [Compound 636, 2-amino-4-((R)-4-((R)-1-(2-aminopyridin-3-yl)ethyl)-8-chloro-2-(((S)-2-(difluoromethylene)tetrahydro-1H-pyrrolizin-7a (5H)-yl)methoxy)-10-fluoro-5,6-dihydro-4H-[1,4]oxazepino[5,6,7-de]quinazolin-9-yl)-7-fluorobenzo[b]thiophene-3-carbonitrile], the IC50 in assay [1], in assay [2], in assay [3] and in assay [4] was no more than 2000 nM each time.

Take `C[C@H](c1cncnc1N)N1CCOc2c(C(F)(F)F)c(-c3ccc(F)c4sc(N)c(C#N)c34)c(F)c3nc(OCC4(CN5CCC(=CF)CC5)CC4)nc1c23` [Compound 916, 2-amino-4-(4-((R)-1-(4-aminopyrimidin-5-yl)ethyl)-10-fluoro-2-((1-((4-(fluoromethylene)piperidin-1-yl)methyl)cyclopropyl)methoxy)-8-(trifluoromethyl)-5,6-dihydro-4H-[1,4]oxazepino[5,6,7-de]quinazolin-9-yl)-7-fluorobenzo[b]thiophene-3-carbonitrile]: the IC50 in assay [1], in assay [2], in assay [3] and in assay [4] was no more than 2000 nM throughout.

`C/C=C/[C@H](c1cccnc1N)N1CCOc2c(Cl)c(-c3ccc(F)c4sc(N)c(C#N)c34)c(F)c3nc(OC[C@@]45CCCN4C[C@H](F)C5)nc1c23` (mixture of isomers) [Compound 756, 2-amino-4-(4-((R,E)-1-(2-aminopyridin-3-yl)but-2-en-1-yl)-8-chloro-10-fluoro-2-(((2R,7aS)-2-fluorotetrahydro-1H-pyrrolizin-7a(5H)-yl)methoxy)-5,6-dihydro-4H-[1,4]oxazepino[5,6,7-de]quinazolin-9-yl)-7-fluorobenzo[b]thiophene-3-carbonitrile]: the IC50 in assay [1], in assay [2], in assay [3] and in assay [4] was no more than 2000 nM throughout.

With `C[C@H](c1cccnc1N)N1CCOc2c(Cl)c(-c3ccc(F)c4sc(N)c(C#N)c34)c(F)c3nc(OC[C@@H]4CC(F)(F)CN4C)nc1c23` (single isomer, unassigned) [Compound 741], the IC50 in assay [1], in assay [2], in assay [3] and in assay [4] was no more than 2000 nM throughout.

On to `CC(Oc1nc2c3c(c(Cl)c(-c4ccc(F)c5sc(N)c(C#N)c45)c(F)c3n1)OCCN2[C@H](C)c1cccnc1N)[C@@H]1CC(F)(F)CN1C` (single isomer, unassigned) [Compound 919], for which the IC50 in assay [1], in assay [2], in assay [3] and in assay [4] was no more than 2000 nM throughout.
